The values below come from ChEMBL document CHEMBL6177973, “A Novel Compound 3a-M1, from Metabolites of Sinomenine Derivative 3a, Exerts Potent Anti-Aplastic Anemia Activity via IP3R/ORAI-Mediated CTL Ferroptosis” (J Med Chem, 2025).

Data set [1] concerns CTLL-2. Nature of the data set: Induction of ferroptosis in mouse CTLL-2 cells assessed as increase in extracellular Ca2+ influx at 10 uM incubated for 24 hrs in presence of EDTA by Fluo-4 AM dye based analysis. Type of data set: functional, cell-based.
The test system of data set [2] is RAW264.7. Nature of the data set: Cytotoxicity against mouse RAW264.7 cells assessed as inhibition of cell viability incubated for 72 hrs by CCK8 assay. The data set is classed as functional, cell-based. As to conditions: RAW264.7, 72 h.
Data set [3] deals with CTLL-2. The experiment in a line: Induction of ferroptosis in mouse CTLL-2 cells assessed as decrease in GSH level incubated for 16 hrs. Type of data set: functional, cell-based. As to conditions: dose 7.5-30 µM.
Data set [4] can be described thus: Acute toxicity in 12 hr-fasted KM mouse assessed as animal survival at 10 g/kg, po administered as single dose measured for 14 days. Type of data set: organism-based. The conditions noted are these: in vivo, 10000 mg/kg, 336 h, time 14 day.
In data set [5] the test system is IEC-6. Nature of the data set: Induction of ferroptosis in rat IEC-6 cells assessed as increase in intracellular Ca2+ concentration at 10 uM by Fluo-4 AM dye based analysis. Type of data set: functional, cell-based.
Data set [6] concerns Mus musculus. The experiment in a line: Anti-aplastic anemia activity in BALB/c mouse model of immune-mediated bone marrow failure assessed as increase in peripheral red blood cells at 10 mg/kg, po treated for 14 days. Type of data set: functional, organism-based. The conditions noted are these: time 14.0 day.
For data set [7], the system named is CTLL-2. The experiment in a line: Induction of ferroptosis in mouse CTLL-2 cells assessed as increase in intracellular Ca2+ concentration at 10 uM incubated for 45 mins in presence of CM4620 by Fluo-4 AM dye based analysis. Type of data set: functional, cell-based.
Data set [8] concerns Mus musculus. Nature of the data set: Anti-aplastic anemia activity in C57BL/6J mouse model of immune-mediated bone marrow failure assessed as CD4+ T cells at 5 mg/kg, IG qd treated for 12 days by flow cytometry (reference value: 12.93 %). The data set is classed as functional. The conditions noted are these: time 12 day.
The subject of data set [9] is Mus musculus. The experiment in a line: Anti-aplastic anemia activity in C57BL/6J mouse model of immune-mediated bone marrow failure assessed as CD4+ T cells at 15 mg/kg, IG qd treated for 12 days by flow cytometry (reference value: 12.93 %). As to conditions: time 12 day. The data set is classed as functional. (In general: Flow cytometry measures light scatter and fluorescence of single cells or particles in a stream.)

In data set [10] the test system is CTLL-2. Nature of the data set: Induction of ferroptosis in mouse CTLL-2 cells assessed as increase in intracellular lipid peroxidation level at 30 uM incubated for 16 hrs by flow cytometry. Type of data set: functional, cell-based.
Data set [11] deals with CTLL-2. The experiment in a line: Induction of ferroptosis in mouse CTLL-2 cells assessed as increase in mitochondrial superoxide level incubated for 16 hrs by MitoSOX Red staining based fluorescent microscopy. The conditions noted are these: dose 7.5-30 µM. The data set is classed as functional, cell-based.
Data set [12] in a line: Drug metabolism in rat plasma assessed as hydrolyzation/hydroxylation-mediated metabolite formation at 50 mg/kg, po measured for 24 hrs by HRMS analysis. The data set is classed as ADME, organism-based. The conditions noted are these: in vivo.
Data set [13] in a line: Drug metabolism in rat plasma assessed as hydrolyzation/demethylation/hydroxylation-mediated metabolite formation at 50 mg/kg, po measured for 24 hrs by HRMS analysis. Type of data set: ADME, organism-based. As to conditions: in vivo.
Data set [14] is described as follows: Drug metabolism in rat plasma assessed as double hydrolyzation/hydroxylation-mediated metabolite formation at 50 mg/kg, po measured for 24 hrs by HRMS analysis. Type of data set: ADME, organism-based. The conditions noted are these: in vivo.
A short description of data set [15]: Drug metabolism in rat plasma assessed as double hydrolyzation/demethylation-mediated metabolite formation at 50 mg/kg, po measured for 24 hrs by HRMS analysis. Type of data set: ADME, organism-based. As to conditions: in vivo.
Data set [16] can be described thus: Drug metabolism in rat plasma assessed as double hydrolyzation/double hydroxylation-mediated metabolite formation at 50 mg/kg, po measured for 24 hrs by HRMS analysis. Type of data set: ADME, organism-based. As to conditions: in vivo.
The nature of data set [17]: Drug metabolism in mouse blood assessed as cinnamic acid metabolite formation at 50 mg/kg, po measured for 0.083 to 8 hrs by HPLC analysis. Type of data set: ADME, organism-based. As to conditions: in vivo, time 0.083-8 hrs.
A short description of data set [18]: Drug metabolism in mouse bone marrow assessed as (4bR,9S)-1-(hydroxymethyl)-3,7-dimethoxy-11-methyl-6-oxo-6,8a,9,10-tetrahydro-5H-9,4b-(epiminoethano)phenanthren-4-yl cinnamate metabolite formation at 50 mg/kg, po measured for 0.083 to 8 hrs by HPLC analysis. Type of data set: ADME, organism-based. The conditions noted are these: in vivo, time 0.083-8 hrs.
Data set [19] in a line: Drug metabolism in rat plasma assessed as hydrolyzation/demethylation-mediated metabolite formation at 50 mg/kg, po measured for 24 hrs by HRMS analysis. Type of data set: ADME, organism-based. As to conditions: in vivo.

Molecules are shown by their SMILES. Calls of active or inactive are those of the source. The calls are words filed in the database; no cut-off is given here.

By IC50 is commonly meant the point on the concentration scale where inhibition reaches its midpoint. For the compound `COC1=C[C@@H]2[C@@H]3Cc4c(CO)cc(OC)c(OC(=O)/C=C/c5ccccc5)c4[C@]2(CCN3C)CC1=O`, the outcome in data set [1], in data set [6] and in [10] was Active. Besides, the IC50 in data set [2] came out at 492 µM. In addition, the Activity entry is “Dose-dependent-effect” in data set [3]; “Non-toxic” in data set [4]; “Not active; Elevation Was Smaller Than In Mouse Ctll-2 Cells” in [5]; 11.38% in data set [8]; 37.87% in [9]; “Dose-dependent-effect” in data set [11]. The outcome in [7] was inactive.
`COC1=C[C@@H]2[C@@H]3Cc4c(COC(=O)/C=C/c5ccccc5)cc(OC)c(OC(=O)/C=C/c5ccccc5)c4[C@]2(CCN3C)CC1=O`: the Drug metabolism result in [12], in data set [13], in data set [14], in data set [15], in [16] and in [17] was “metabolite_detected” each time. Moreover, the Drug metabolism entry in data set [18] and in data set [19] was “metabolite_detected” throughout.
